According to the kinase profiling compilation of Christmann-Franck et al. (2016):

Assays:
Assay in all cases: SelectScreen, TR FRET
Conditions in all cases: compound 5.0 µM
PIM1 (human) = PIM1 (human) (UniProt P11309)
PRKCG (human) = PRKCG (human) (UniProt P05129)
EPHA4 (human) = EPHA4 (human) (UniProt P54764)
ADRBK2 (human) = ADRBK2 (human) (UniProt P35626)
STK24 (human) = STK24 (human) (UniProt Q9Y6E0)
PDPK1 (human) = PDPK1 (human) (UniProt O15530)
IKBKB (human) = IKBKB (human) (UniProt O14920)
ROS1 (human) = ROS1 (human) (UniProt P08922)
AKT2 (human) = AKT2 (human) (UniProt P31751)
NEK2 (human) = NEK2 (human) (UniProt P51955)
ERBB4 (human) = ERBB4 (human) (UniProt Q15303)
STK3 (human) = STK3 (human) (UniProt Q13188)
ITK (human) = ITK (human) (UniProt Q08881)
[1] = test system: PDGFRA (human), P16234 [T674I]
CAMK2D (human) = CAMK2D (human) (UniProt Q13557)
RPS6KA1 KD1 KD2 (human) = RPS6KA1 KD1 KD2 (human) (UniProt Q15418)
DAPK3 (human) = DAPK3 (human) (UniProt O43293)
FGFR3 (human) = FGFR3 (human) (UniProt P22607)
FGFR3 (human), sequence (P22607 whole entry, looked up): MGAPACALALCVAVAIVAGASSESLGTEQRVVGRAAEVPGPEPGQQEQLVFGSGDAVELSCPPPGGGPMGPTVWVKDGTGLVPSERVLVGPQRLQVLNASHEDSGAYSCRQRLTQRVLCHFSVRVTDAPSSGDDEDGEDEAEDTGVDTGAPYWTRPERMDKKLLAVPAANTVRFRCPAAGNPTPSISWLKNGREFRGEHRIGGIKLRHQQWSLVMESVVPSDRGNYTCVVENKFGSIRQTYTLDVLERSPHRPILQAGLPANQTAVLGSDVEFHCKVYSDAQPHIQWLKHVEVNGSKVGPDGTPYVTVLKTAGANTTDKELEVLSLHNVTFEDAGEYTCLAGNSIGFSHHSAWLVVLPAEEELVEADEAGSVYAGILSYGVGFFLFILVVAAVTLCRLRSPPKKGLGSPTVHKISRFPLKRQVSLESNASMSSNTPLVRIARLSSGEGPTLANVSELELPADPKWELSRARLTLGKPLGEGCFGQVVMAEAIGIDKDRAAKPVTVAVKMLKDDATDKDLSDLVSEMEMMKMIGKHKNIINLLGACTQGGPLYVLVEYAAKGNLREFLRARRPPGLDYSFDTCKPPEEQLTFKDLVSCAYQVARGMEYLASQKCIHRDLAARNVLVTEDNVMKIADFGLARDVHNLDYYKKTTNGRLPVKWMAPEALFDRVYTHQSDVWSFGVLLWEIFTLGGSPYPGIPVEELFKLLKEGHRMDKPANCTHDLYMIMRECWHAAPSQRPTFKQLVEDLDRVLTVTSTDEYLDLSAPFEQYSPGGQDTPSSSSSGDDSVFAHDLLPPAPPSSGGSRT

PRKD2 (human) = PRKD2 (human) (UniProt Q9BZL6)
MAP4K5 (human) = MAP4K5 (human) (UniProt Q9Y4K4)
MAP4K5 (human), sequence (Q9Y4K4 whole entry, looked up): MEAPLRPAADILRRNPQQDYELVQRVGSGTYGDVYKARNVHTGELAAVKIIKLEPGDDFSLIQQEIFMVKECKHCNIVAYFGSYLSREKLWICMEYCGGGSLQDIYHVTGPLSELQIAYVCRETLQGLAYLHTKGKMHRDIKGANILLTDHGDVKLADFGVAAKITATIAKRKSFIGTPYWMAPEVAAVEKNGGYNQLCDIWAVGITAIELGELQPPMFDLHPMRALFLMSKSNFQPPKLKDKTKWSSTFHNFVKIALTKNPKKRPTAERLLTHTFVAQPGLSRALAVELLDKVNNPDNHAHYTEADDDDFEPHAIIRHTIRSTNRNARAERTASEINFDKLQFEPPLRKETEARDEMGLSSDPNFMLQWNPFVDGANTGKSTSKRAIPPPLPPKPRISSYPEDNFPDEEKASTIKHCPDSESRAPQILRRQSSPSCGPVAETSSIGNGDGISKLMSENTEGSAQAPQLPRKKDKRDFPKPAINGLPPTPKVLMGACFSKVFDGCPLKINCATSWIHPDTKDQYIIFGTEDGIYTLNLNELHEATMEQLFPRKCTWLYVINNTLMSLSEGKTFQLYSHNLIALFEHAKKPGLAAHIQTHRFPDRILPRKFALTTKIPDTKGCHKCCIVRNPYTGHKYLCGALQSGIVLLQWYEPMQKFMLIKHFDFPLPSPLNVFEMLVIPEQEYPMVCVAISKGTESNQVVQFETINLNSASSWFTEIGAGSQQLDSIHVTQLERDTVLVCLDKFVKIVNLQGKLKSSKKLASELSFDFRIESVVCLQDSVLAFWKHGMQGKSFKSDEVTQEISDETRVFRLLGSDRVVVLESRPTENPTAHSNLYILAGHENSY

MAPK13 (human) = MAPK13 (human) (UniProt O15264)
FRK (human) = FRK (human) (UniProt P42685)
CSNK2A2 (human) = CSNK2A2 (human) (UniProt P19784)
PRKCB1 (human) = PRKCB1 (human) (UniProt P05771)
FGFR4 (human) = FGFR4 (human) (UniProt P22455)
PRKG2 (human) = PRKG2 (human) (UniProt Q13237)
SRC (human) = SRC (human) (UniProt P12931)
SRC (human), sequence (P12931 whole entry, looked up): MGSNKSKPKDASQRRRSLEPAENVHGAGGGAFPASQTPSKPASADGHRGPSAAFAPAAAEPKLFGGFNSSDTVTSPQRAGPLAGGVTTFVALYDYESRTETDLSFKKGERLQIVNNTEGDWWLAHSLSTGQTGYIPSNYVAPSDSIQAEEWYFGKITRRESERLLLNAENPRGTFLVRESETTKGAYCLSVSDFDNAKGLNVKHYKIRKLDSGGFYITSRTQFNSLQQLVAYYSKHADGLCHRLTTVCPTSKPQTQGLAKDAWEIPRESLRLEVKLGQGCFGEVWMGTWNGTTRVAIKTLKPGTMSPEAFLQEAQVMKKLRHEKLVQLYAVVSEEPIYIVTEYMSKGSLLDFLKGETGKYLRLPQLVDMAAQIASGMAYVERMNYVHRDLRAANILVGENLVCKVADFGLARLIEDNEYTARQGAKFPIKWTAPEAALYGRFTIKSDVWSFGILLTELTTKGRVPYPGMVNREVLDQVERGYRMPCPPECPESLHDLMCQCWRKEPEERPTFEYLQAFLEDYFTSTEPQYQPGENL

MAPK1 (human) = MAPK1 (human) (UniProt P28482)
SYK (human) = SYK (human) (UniProt P43405)
CSNK2A1 (human) = CSNK2A1 (human) (UniProt P68400)
LCK (human) = LCK (human) (UniProt P06239)
LCK (human), sequence (P06239 whole entry, looked up): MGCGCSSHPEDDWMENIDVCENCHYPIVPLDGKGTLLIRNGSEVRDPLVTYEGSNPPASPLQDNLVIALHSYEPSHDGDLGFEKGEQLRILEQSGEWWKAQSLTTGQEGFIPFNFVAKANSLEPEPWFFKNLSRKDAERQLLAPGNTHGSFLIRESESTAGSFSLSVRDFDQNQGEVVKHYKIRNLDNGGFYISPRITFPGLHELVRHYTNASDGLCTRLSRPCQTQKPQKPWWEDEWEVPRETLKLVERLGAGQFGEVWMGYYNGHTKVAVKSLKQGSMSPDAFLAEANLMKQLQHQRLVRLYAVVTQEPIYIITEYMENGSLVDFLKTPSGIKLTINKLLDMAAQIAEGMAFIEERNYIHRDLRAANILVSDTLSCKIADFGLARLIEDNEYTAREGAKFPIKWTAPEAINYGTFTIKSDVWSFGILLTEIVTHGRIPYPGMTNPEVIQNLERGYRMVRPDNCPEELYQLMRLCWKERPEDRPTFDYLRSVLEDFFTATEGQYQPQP

MAPKAPK2 (human) = MAPKAPK2 (human) (UniProt P49137)
CDK5 CDK5R1 p35 (human) = CDK5 CDK5R1 p35 (human) (UniProt Q00535+Q15078)
FGR (human) = FGR (human) (UniProt P09769)
FGR (human), sequence (P09769 whole entry, looked up): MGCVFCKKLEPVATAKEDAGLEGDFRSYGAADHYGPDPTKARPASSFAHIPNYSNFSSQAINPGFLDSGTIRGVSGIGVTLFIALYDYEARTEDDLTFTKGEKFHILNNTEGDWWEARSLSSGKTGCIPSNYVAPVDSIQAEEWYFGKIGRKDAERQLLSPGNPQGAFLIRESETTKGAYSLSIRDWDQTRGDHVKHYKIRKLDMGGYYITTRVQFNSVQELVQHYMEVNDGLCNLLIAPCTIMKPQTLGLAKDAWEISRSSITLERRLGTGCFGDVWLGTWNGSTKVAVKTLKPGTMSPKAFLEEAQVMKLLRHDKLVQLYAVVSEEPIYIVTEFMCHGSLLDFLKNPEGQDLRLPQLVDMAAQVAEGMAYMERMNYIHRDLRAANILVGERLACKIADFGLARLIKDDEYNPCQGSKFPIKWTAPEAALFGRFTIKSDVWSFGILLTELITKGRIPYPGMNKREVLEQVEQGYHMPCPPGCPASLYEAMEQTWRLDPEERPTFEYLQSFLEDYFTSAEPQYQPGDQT

TYRO3 (human) = TYRO3 (human) (UniProt Q06418)
TYRO3 (human), sequence (Q06418 whole entry, looked up): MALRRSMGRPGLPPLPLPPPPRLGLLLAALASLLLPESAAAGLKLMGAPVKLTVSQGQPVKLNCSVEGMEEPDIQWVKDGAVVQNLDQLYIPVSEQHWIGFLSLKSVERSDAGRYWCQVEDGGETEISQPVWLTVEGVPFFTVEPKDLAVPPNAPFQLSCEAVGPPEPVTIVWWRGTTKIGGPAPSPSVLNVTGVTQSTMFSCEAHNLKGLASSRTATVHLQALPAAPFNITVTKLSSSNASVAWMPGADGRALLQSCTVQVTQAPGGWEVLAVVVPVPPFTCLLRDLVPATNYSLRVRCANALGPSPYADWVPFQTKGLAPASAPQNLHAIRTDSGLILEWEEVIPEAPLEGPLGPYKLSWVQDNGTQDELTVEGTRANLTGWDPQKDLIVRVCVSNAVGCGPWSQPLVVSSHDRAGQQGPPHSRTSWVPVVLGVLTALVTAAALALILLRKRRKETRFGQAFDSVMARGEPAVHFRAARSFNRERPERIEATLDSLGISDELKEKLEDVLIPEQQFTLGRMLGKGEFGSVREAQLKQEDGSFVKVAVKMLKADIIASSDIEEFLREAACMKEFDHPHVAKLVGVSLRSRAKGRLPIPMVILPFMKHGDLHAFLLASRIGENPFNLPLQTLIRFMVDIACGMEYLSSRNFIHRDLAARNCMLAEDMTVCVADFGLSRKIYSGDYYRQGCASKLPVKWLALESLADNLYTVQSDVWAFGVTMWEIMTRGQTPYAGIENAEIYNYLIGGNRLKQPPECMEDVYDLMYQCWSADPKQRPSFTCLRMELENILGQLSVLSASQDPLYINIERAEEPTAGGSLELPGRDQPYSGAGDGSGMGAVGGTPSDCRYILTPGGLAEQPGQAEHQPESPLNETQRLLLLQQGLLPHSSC

KIT (human) = KIT (human) (UniProt P10721)
CDK2 CCNA2 (human) = CDK2 CCNA2 (human) (UniProt P24941+P20248)
STK4 (human) = STK4 (human) (UniProt Q13043)
MET (human) = MET (human) (UniProt P08581)
FER (human) = FER (human) (UniProt P16591)
FER (human), sequence (P16591 whole entry, looked up): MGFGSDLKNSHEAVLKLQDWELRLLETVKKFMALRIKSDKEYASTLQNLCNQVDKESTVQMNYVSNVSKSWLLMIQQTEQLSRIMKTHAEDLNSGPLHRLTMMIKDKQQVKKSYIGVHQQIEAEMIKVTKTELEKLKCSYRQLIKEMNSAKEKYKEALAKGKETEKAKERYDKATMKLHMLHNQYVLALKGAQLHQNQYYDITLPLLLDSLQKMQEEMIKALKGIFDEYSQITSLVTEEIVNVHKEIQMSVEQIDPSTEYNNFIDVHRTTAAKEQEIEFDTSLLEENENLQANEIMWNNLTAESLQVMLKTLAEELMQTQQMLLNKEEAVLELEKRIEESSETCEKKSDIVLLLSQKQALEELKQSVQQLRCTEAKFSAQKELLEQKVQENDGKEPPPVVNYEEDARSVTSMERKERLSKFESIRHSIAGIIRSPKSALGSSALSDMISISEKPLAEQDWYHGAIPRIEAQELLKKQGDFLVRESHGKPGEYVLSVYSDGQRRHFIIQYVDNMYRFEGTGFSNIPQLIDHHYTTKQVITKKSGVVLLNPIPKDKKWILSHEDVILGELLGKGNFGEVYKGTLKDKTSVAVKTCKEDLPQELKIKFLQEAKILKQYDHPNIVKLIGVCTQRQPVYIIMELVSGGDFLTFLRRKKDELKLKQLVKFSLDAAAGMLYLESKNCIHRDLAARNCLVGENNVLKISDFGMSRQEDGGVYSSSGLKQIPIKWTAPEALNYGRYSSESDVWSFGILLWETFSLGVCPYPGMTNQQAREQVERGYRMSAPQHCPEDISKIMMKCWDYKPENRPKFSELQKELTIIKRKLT

`Nc1cc(C(F)(F)F)c(-c2cc(N3CCOCC3)nc(N3CCOCC3)n2)cn1` showed an inhibition (PIM1 (human)) of 6%, an inhibition (PRKCG (human)) of 5% and an inhibition (EPHA4 (human)) of 9%. The inhibition (ADRBK2 (human)) was 2%, the inhibition (STK24 (human)) was 7% and the inhibition (PDPK1 (human)) was 4%. It also gave an inhibition (IKBKB (human)) of -2%, an inhibition (ROS1 (human)) of 27% and an inhibition (AKT2 (human)) of 0%. The inhibition (NEK2 (human)) was 7%, the inhibition (ERBB4 (human)) was 10% and the inhibition (STK3 (human)) was 5%. It also gave an inhibition (ITK (human)) of 3%, an inhibition [1] of 11% and an inhibition (CAMK2D (human)) of 1%. It also gave an inhibition (RPS6KA1 KD1 KD2 (human)) of 5%, an inhibition (DAPK3 (human)) of 1% and an inhibition (FGFR3 (human)) of 2%. The inhibition (PRKD2 (human)) was 2%, the inhibition (MAP4K5 (human)) was 10% and the inhibition (MAPK13 (human)) was 2%. It also gave an inhibition (FRK (human)) of 2%, an inhibition (CSNK2A2 (human)) of -2% and an inhibition (PRKCB1 (human)) of 30%. For the same compound, the inhibition (FGFR4 (human)) was 5%, the inhibition (PRKG2 (human)) was 10% and the inhibition (SRC (human)) was 10%. For the same compound, the inhibition (MAPK1 (human)) was 6%, the inhibition (SYK (human)) was 1% and the inhibition (CSNK2A1 (human)) was 1%. The inhibition (LCK (human)) was 7%, the inhibition (MAPKAPK2 (human)) was -4% and the inhibition (CDK5 CDK5R1 p35 (human)) was -1%. For the same compound, the inhibition (FGR (human)) was 15%, the inhibition (TYRO3 (human)) was 3% and the inhibition (KIT (human)) was 39%. It also gave an inhibition (CDK2 CCNA2 (human)) of 2%, an inhibition (STK4 (human)) of 14% and an inhibition (MET (human)) of 5%. The inhibition (FER (human)) was 1%.
